A value given as a limit tells only on which side of the number the result lay.

The subject of series [1] is cultured human mast cells (CHMC). As to the kind of experiment: CHMC high cell density IgE activation: IL-13. It is filed as cell-based. The settings on record: anti-IgE activation. How it is done: Inhibition of degranulation was measured at both low and high cell density by quantifying the release of the granule specific factors tryptase, histamine and hexosaminidase. Inhibition of release and/or synthesis of lipid mediators was assessed by measuring the release of leukotriene LTC4 and inhibition of release and/or synthesis of cytokines was monitored by quantifying TNF-α, IL-6 and IL-13. Tryptase and hexosaminidase were quantified using fluorogenic substrates as described in their respective examples. […] The protocols of the various assays are provided below.
After sensitizing, cells are counted, pelleted (1000 rpm, 5-10 minutes), and resuspended at 1-2×10^6 cells/ml in MT buffer. Add 100 ul of cell suspension to each well and 100 ul of compound dilutions. The final vehicle concentration is 0.5% DMSO. Incubate at 37° C. (5% CO2) for 1 hour. After 1 hour of compound treatment, stimulate cells with 6× anti-IgE. Mix wells with the cells and allow plates to incubate at 37° C. (5% CO2) for one hour. After 1 hour incubation, pellet cells (10 minutes, 1000 RPM) and collect 200 ul per well of the supernatant, being careful not to disturb pellet. Place the supernatant plate on ice. During the 7-hour step (see next) perform tryptase assay on supernatant that had been diluted 1:500. Resuspend cell pellet in 240 ul of CM media containing 0.5% DMSO and corresponding concentration of compound. Incubate CHMC cells for 7 hours at 37° C. (5% CO2). After incubation, pellet cells (1000 RPM, 10 minutes) and collect 225 ul per well and place in −80° C. until ready to perform ELISAS. ELISAS are performed on appropriately diluted samples (determined empirically for each donor cell population so that the sample measurement falls within the standard curve) following the supplier's instructions.

In series [2] the test system is Jurkat cells. As to the kind of experiment: Jurkat toxicity, Cell Titer Glo assay. It counts as cell-based. Conditions: 18 hours incubation. How it is done:
Seed 50 μl cells (1×10^6/ml) into each well containing 50 μl compound. […] Shake plates for 1 minute to mix cells and compound. Incubate plates at 37° C. […] Next day, harvest 50 μl cells from each well, add to 50 μl Cell Titer Glo reagent ([…]). Shake plates for 1 minute. Read on luminometer.
In general terms: In ATP-based viability assays light output follows the ATP content of the culture.

The test system of series [3] is B-cell line BJAB. In words: BJAB toxicity, Cell Titer Glo assay. It is filed as cell-based. The settings on record: 18 hours incubation. How it is done:
Seed 50 μl cells (1×10^6/ml) into each well containing 50 μl compound. The final vehicle concentration is 0.5% DMSO, 1.5% MeOH. Shake plates for 1 minute to mix cells and compound. Incubate plates at 37° C. (5% CO2) for 18 hours. Next day, harvest 50 μl cells from each well, add to 50 μl Cell Titer Glo reagent ([…]). Shake plates for 1 minute. Read on luminometer.

Series [4] relates to IgE-induced degranulation of tissue mast cells. In words: Mouse model of passive cutaneous anaphylaxis (PCA). It counts as in vivo. The settings on record: for % Inhibition (PCA) / Plasma level: PO, 1.5% Avicel/water, pretreatment 15 min. The procedure: This model provides a direct measure of IgE-induced degranulation of tissue mast cells. In this model, IgE primed animals are exposed to an allergen challenge, and the change in permeability of dermal vasculature that results from histamine release from mast cells is measured by change in the amount of dye leakage into surrounding tissue. Inhibition of mediator release by compounds that modulate mast cell degranulation is easily measured by extracting the dye from the tissue.
In the PCA assay mice are passively sensitized by intradermal injection with anti-dinitrophenol (DNP) IgE antibodies (Day −1). At predetermined times animals are treated with the test agent (Day 0). The modulatory effect of the agent on cutaneous mast cell degranulation is measured following intravenous injection of DNP conjugated to human serum albumin (HSA-DNP), together with Evans blue dye. The resulting cross-linking of the IgE receptor and subsequent mast cell degranulation-induced increase in vascular permeability is determined by measuring the amount of dye extravasation into the tissue. Dye is extracted from the tissue by formamide, and the absorbance of this extract is read at 620 nm.

Series [5] in a line: Mouse model of allergic asthma (ovalbumin). It counts as in vivo. Conditions: less stringent protocol; subcutaneously 70 mg/kg in 67% PEG400/33% citrate buffer, 30 minutes prior to challenge. The source says: Mice are sensitized to ovalbumin (chicken protein) in the presence of an adjuvant (Alum) by the intraperitoneal route on day 0 and day 7. One week later, mice are challenged intranasally with ovalbumin on Days 14, 15 and 16 (more stringent model) or on Day 14 (less stringent model). This sensitization and challenge regimen leads to airway hyperresponsiveness and inflammation in the lungs, which are two dominant characteristics of human allergic asthma. In the mouse model, the in vivo airway responses are measured using a whole body plethysmograph which determines the PENH (enhanced Pause, Buxco Electronics). The PENH is a dimensionless value comprised of the peak inspiratory flow (PIF), peak expiratory flow (PEF), time of inspiration, time of expiration and relaxation time, and is considered a validated parameter of airway responsiveness. Responses to allergen challenge (OVA) are compared with animals challenged with saline only. Twenty-four hours after challenge, mice are exposed to increasing doses of methacholine (muscarinic receptor agonist) which results in smooth muscle contraction. […] In addition, a cellular infiltrate in the airway is observed in ovalbumin challenged mice when compared with the saline challenged mice. This cellular infiltrate is mainly characterized by eosinophils, but a smaller influx of neutrophils and mononuclear cells is also present.
The use of this model for the evaluation of small molecule inhibitors of mast cell degranulation has been validated is several ways. First, using mast cell deficient mice (W/W^v) it has been shown that the ovalbumin-induced responses are dependent upon the presence of mast cells.

Series [6] relates to cultured human mast cells (CHMC). In words: CHMC high cell density IgE activation: hexos (hexosaminidase) release. It is filed as cell-based. Conditions: anti-IgE activation. A digest of the protocol: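 IgE-sensitized CHMC at 1-2×10^6 cells/ml were pretreated with compound for 1 h at 37 °C (0.5% DMSO final), then anti-IgE-stimulated for 1 h and supernatant collected. Hexosaminidase was read with a fluorogenic substrate. Pellets were re-incubated 7 h with compound before supernatant ELISAs.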

Consider `CNC(=O)COc1cccc(Nc2ncc(F)c(Nc3ccc4c(c3)NCCO4)n2)c1` [R921219, N4-(1,4-Benzoxazin-6-yl)-5-fluoro-N2-[3-(N-methylamino)carbonylmethyleneoxyphenyl]-2,4-pyrimidinediamine], for which the IC50 (in general, the concentration that gives 50% inhibition) in series [1] is 175 nM; in series [2], above 10000 nM; in series [3], above 10000 nM. Also, the “% Inhibition (PCA)” value is given as 25% in series [4] (30 mg/kg), 68% in series [4] (100 mg/kg) and 92% in series [4] (300 mg/kg). The Plasma level was determined as 400 ng/mL in series [4] (30 mg/kg), 4000 ng/mL in series [4] (100 mg/kg) and 11000 ng/mL in series [4] (300 mg/kg). Moreover, the “circulating exposure levels at which active” value in series [4] (mouse, in vivo) is reported as “approximately 10 μg/ml”. Also, the “FcεR-mediated vascular leakage with increasing doses (in words)” value in series [4] (solution (67% PEG/33% citrate buffer) or aqueous suspension (1.5% Avicel)) is listed as “dose-dependent inhibition”. In addition, the “ovalbumin-induced airway hyperresponsiveness and cellular influx” value in series [5] is reported as “completely blocked”.

Turning to `CNC(=O)COc1cccc(Nc2ncc(F)c(Nc3cccc(O)c3)n2)c1` [R926508, 5-Fluoro-N4-(3-hydroxyphenyl)-N2-[3-(N-methylamino)carbonylmethyleneoxyphenyl]-2,4-pyrimidinediamine], the IC50 is 170 nM in series [6], 763 nM in series [1], above 10000 nM in series [2] and above 10000 nM in series [3].

Values taken from patent publication US9499493B2, “2,4-pyrimidinediamine compounds and their uses” (Rigel Pharmaceuticals, Inc., priority 2002, dated 2016).
